Results published in patent publication US12297164B2, “Benzidine compound and application thereof” (Guangzhou IMD therapeutics Co., Ltd., priority 2019, dated 2025).
Where two headings read alike, the source gives them in different places.

What was measured:
RORγ [1] = biological target: T1, RORγ (Homo sapiens (Human), UniProt P51449); test: AlphaScreen inhibitory activity on RORγ protein; type: biochemical; details: RORγ 200 nM, bSRC1-4 50 nM
Protocol: Experimental materials: target protein RORγ with the final concentration of 200 nM; experimental buffer (10×) MOPS (500 mM) PH 7.4, CHAPS (0.5 mM), NaF (500 mM), and
The mixture was centrifuged at room temperature at 1000 rpm for 1 minute to make the system fully mixed. After being wrapped in tin foil, the mixture was incubated in the dark for 1.5 hours.
Target sequence in this assay (P51449 whole entry): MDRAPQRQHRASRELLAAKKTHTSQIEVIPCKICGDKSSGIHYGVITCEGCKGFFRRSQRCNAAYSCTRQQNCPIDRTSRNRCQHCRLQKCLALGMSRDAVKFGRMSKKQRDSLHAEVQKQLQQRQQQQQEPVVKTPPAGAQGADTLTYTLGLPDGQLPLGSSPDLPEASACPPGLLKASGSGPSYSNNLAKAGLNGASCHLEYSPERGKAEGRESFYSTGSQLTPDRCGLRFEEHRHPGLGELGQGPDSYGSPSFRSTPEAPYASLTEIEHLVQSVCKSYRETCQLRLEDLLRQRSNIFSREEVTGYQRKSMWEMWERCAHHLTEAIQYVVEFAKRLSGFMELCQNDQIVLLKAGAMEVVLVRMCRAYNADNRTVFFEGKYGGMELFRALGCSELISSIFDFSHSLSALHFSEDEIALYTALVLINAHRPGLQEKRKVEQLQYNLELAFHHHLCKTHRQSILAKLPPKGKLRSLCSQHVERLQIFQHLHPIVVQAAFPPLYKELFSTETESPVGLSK

RORγ [2] = biological target: T1, RORγ; test: Luciferase double reporter gene assay (Gal4-RORγLBD) in 293T cells; type: cell-based; details: 24 hours of incubation
Protocol: The cells were cultured in a 96-well plate one day before transfection, with a cell density of 1.5×10^4 cells/well. After 24 hours of adherent growth, the cells were subjected to transient transfection by using the method of double reporter gene co-transfection with the transfection reagent of Lipo-fectamine 2000, where the transfection reagent and plasmids were diluted with Opti-MEM reagent, respectively. […] Each sample had 3 duplicate wells.
Target sequence in this assay (P51449 269-508): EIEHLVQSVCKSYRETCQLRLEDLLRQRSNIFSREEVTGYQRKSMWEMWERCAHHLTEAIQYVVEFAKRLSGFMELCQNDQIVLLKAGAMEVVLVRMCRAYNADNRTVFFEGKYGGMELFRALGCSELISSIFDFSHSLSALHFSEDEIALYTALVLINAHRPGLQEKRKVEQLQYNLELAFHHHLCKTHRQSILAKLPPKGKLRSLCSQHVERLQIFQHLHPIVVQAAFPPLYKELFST

RORγ [3] = biological target: T1, RORγ; test: TSA detection (thermal shift); type: binding; details: protein 10 μM
Protocol: Experimental materials: hRORγ protein, fluorescent dye Sypro Orange, 10p buffer, ultrapure water, and HSP-96 well reaction plates.
Experimental method: The diluted protein (with the final concentration of 10 μM), fluorescent dye (with the final concentration of 5×), 10× TSA buffer, and double distilled water were prepared into a mixed solution with final component volumes of 1 μL, 1 μL, 1 μL, and 2 μL, receptively. The mixed solution was transferred to an HSP-96 well reaction plate, 5 μL each well. The ligand, i.e., small molecule compound, was added, 5 μL per well, with the final concentration of 200 µM. The mixture was centrifuged at room temperature at 1000 rpm for 1 minute to make the system fully mixed. The mixture was placed on an ice bath in low light for more than 30 minutes, and after that, put into RT-PCR instrument for testing. The temperature was set from 30° C. to 80° C., and the mixture was detected every time the temperature was raised by 0.5° C. and every 5 seconds.
Target sequence in this assay (P51449 whole entry): as the sequence (P51449 whole entry) above

[4] = system: 293T (human renal epithelial cell line transfected with adenovirus E1A gene, expressing SV40 large T antigen); test: Cell-Titer GLO cell inhibition; type: cell-based; details: Homo sapiens, HEK-293T
Protocol: (§1) Experimental materials: fluorescence signal detection instrument: EnSpire Alpha 2390 multifunctional microplate reader (produced by Perkin Elmer Company); 384-well bottom permeable microwell plate; Cell-Titer GLO luminescent reagent; cancer cells to be tested; medium and fetal bovine serum required for cell culture.
(§2) […]. After incubation with the compound for 72 to 144 hours, Cell-Titer GLO reagent 25-T was added to each well, and the plate was shaken for 20 minutes to lyse the cells. After incubation for 10 minutes, the cells were centrifuged for 1 minute, the signal value of luminescence 384 was measured. The inhibition curve was fitted by GraphPad Prism software to obtain IC50.

[5] = system: A549 (non-small cell lung cancer); test: Cell-Titer GLO cell inhibition; type: cell-based; details: Homo sapiens
Protocol: as §1, §2

[6] = system: Cos7 (African green monkey kidney cells); test: Cell-Titer GLO cell inhibition; type: cell-based; details: Chlorocebus sabaeus, COS-7
Protocol: as §1, §2

[7] = system: H1975 (lung cancer cells); test: Cell-Titer GLO cell inhibition; type: cell-based; details: Homo sapiens, NCI-H1975
Protocol: as §1, §2

HFL-1 (lung fibroblasts) = test: Cell-Titer GLO cell inhibition; type: cell-based; details: Homo sapiens, HFL1
Protocol: as §1, §2

[8] = system: HL-7702 (liver epithelial cells); test: Cell-Titer GLO cell inhibition; type: cell-based; details: Homo sapiens, L02
Protocol: as §1, §2

HT-29 (colon cancer) = test: Cell-Titer GLO cell inhibition; type: cell-based; details: Homo sapiens
Protocol: as §1, §2

[9] = system: Hela (cervical cancer cells); test: Cell-Titer GLO cell inhibition; type: cell-based; details: Homo sapiens
Protocol: as §1, §2

[10] = system: Hs578T (triple negative breast cancer); test: Cell-Titer GLO cell inhibition; type: cell-based; details: Homo sapiens, Hs-578T
Protocol: as §1, §2

[11] = system: MCF-7 (ER + breast cancer); test: Cell-Titer GLO cell inhibition; type: cell-based; details: Homo sapiens, MCF7
Protocol: as §1, §2

[12] = system: MDA-MB-231 (triple negative breast cancer); test: Cell-Titer GLO cell inhibition; type: cell-based; details: Homo sapiens
Protocol: as §1, §2

MV-4-11 (acute leukemia) = test: Cell-Titer GLO cell inhibition; type: cell-based; details: Homo sapiens, MV4-11
Protocol: as §1, §2

U2OS (osteosarcoma) = test: Cell-Titer GLO cell inhibition; type: cell-based; details: Homo sapiens
Protocol: as §1, §2

[13] = system: VcaP (AR-positive prostate cancer); test: Cell-Titer GLO cell inhibition; type: cell-based; details: Homo sapiens, VCaP
Protocol: as §1, §2

[14] = system: Du145 (AR-negative prostate cancer); test: Cell-Titer GLO cell inhibition; type: cell-based; details: Homo sapiens, DU-145
Excerpt: (§3) The inhibition curve was fitted by GraphPad Prism software to obtain IC50.

[15] = system: PC-3 (AR-negative prostate cancer); test: Cell-Titer GLO cell inhibition; type: cell-based
Excerpt: as §3

RORγ [16] = biological target: T1, RORγ; test: ITC binding activity; details: read-out: Kd ITC, 25° C., pH 7.5
Target sequence in this assay (P51449 whole entry): as above

[17] = Pharmacokinetics in SD rats
Protocol: MATERIALS: Pharmacokinetic analysis was performed by Medicilon Corporation in Shanghai. Twelve Sprague and Dawley rats were provided by Super-B&K laboratory animal Corp. Ltd in Shanghai.
Experimental method: The compound was dissolved in DMSO:PEG 400:20% HP-400 (5:40:55, v:v:v) to serve as a stock solution (0.4 mg/ml, intravenous injection; 1 mg/ml, oral administration). The stock solution was administrated orally to three SD rats at a dose of 10 mg/kg, and administrated intravenously to three SD rats at a single dose of 2 mg/kg. Blood was collected from the jugular vein before oral administration and at 0.25, 0.5, 1, 2, 4, 6, 8, and 24 hours after oral administration. Blood was collected from the jugular vein before intravenous injection and at 0.083, 0.25, 0.5, 1, 2, 4, 6, 8, and 24 hours after intravenous injection. About 200 μL of blood sample was collected into a heparinized tube and immediately centrifuged at 8000 rpm for 6 minutes, and the resulting plasma was stored at −80° C. until analysis.

RORγ [18] = biological target: T1, RORγ; test: Specificity luciferase reporter assay in 293T cells, RORγ; details: read-out: IC50 RORγ, reporter gene
Target sequence in this assay (P51449 269-508): as the sequence (P51449 269-508) above
Protocol: The cells were cultured in a 96-well plate one day before transfection, with a cell density of 1.5×10^4 cells/well. After 24 hours of adherent growth, the cells were subjected to transient transfection by using the method of double reporter gene co-transfection with the transfection reagent of Lipo-fectamine 2000, and the transfection reagent and plasmids were diluted with Opti-MEM reagent, respectively. Gal4-RORγLBD was 25 ng per well; PG5-luc gene was 25 ng per well; and Renilla was 5 ng per well. After 24 hours of co-transfection, different concentrations of compounds were added. After 24 hours of incubation, Luciferase double reporter gene detection kit was used to detect luminescence signals. Each sample had 3 duplicate wells. The IC50 value (half inhibitory concentration) was calculated by software.

[19] = system: 22Rv1 (AR-positive prostate cancer); test: Cell-Titer GLO cell inhibition; type: cell-based; details: Homo sapiens
Excerpt: as §3

[20] = SD rats, intravenous injection, 2 mg/kg
[21] = Sprague-Dawley, rat, in vivo, iv, 2 mg/kg
[22] = Sprague-Dawley, rat, in vivo, po, 10 mg/kg

Row | Compound | IC50 (RORγ [1]) [µM] | IC50 (RORγ [2]) [µM] | ΔTm (RORγ [3]) [°C] | IC50 [5] [µM] | IC50 [6] [µM] | IC50 [7] [µM] | IC50 (HFL-1 (lung fibroblasts)) [µM] | IC50 [8] [µM] | IC50 (HT-29 (colon cancer)) [µM] | IC50 [9] [µM] | IC50 [10] [µM] | IC50 [11] [µM] | IC50 [12] [µM] | IC50 (MV-4-11 (acute leukemia)) [µM] | IC50 (U2OS (osteosarcoma)) [µM] | IC50 [13] [µM] | IC50 [14] [µM] | IC50 [15] [µM] | further results
1 | CS(=O)(=O)c1ccc(CC(=O)Nc2ccc(-c3ccc(C(O)(C(F)(F)F)C(F)(F)F)cc3F)cc2)cc1 [Example 1, N-(2′-fluoro-4′-(1,1,1,3,3,3-hexafluoro-2-hydroxypropan-2-yl)-[1,1′-biphenyl]-4-yl)-2-(4-(methylsulfonyl)phenyl)acetamide] | 2.28 ± 0.05 | 0.12 | 7.8 | 22 | 40 | 24 | 30 | ~34.6 | 14.6 | 31.4 | 18.4 | 13.3 | ~34.7 | 4.82 | 34.5 | 12.8 | 19.1 | 16 | IC50 ([4]; 293T, ~ = estimate, read-out: IC50): 15.3 µM; Kd (RORγ [16]): 0.56 µM; Cl [17, 20]: 3.2288 ± 0.2047 mL/min/kg; Vz [17, 20]: 3.54 ± 0.271 L/kg; F ([17]; SD rats, oral administration 10 mg/kg vs intravenous 2 mg/kg): 51.91%; Tmax ([17]; SD rats, oral administration, 10 mg/kg): 5.33 ± 2.31 h; AUC(0-inf) [17, 21]: 10400 ± 664 ng·h/mL; AUC(0-t) [17, 21]: 7660 ± 329 ng·h/mL; Cmax [17, 21]: 980 ± 53.2 ng/mL; Tmax [17, 21]: 0.08 h; half-life [17, 21]: 12.7 ± 1.21 h; AUC(0-inf) [17, 22]: 24500 ± 5810 ng·h/mL; AUC(0-t) [17, 22]: 21600 ± 3950 ng·h/mL; Cmax [17, 22]: 1420 ± 161 ng/mL; half-life [17, 22]: 8.67 ± 0.05 h; IC50 (RORγ [18]): 0.12 ± 0.03 µM
2 | CCS(=O)(=O)c1ccc(CC(=O)Nc2ccc(-c3ccc(C(O)(C(F)(F)F)C(F)(F)F)cc3F)cc2)cc1 [Example 2, 2-(4-(ethylsulfonyl)phenyl)-N-(2′-fluoro-4′-(1,1,1,3,3,3-hexafluoro-2-hydroxypropan-2-yl)-[1,1 1,1′-biphenyl]-4-yl)acetamide] |  |  |  | 7.08 | 29 | 16 | ~31.9 | ~50 | 6.07 | 25.1 | 11.9 | 10.5 | ~80 | 9.48 | 15.9 | 13 | 11.5 | 15 | IC50 [4]: 6.22 µM; IC50 [19]: 14.5 ± 1.1 µM
3 | Nc1ccccc1CC(=O)Nc1ccc(-c2ccc(C(O)(C(F)(F)F)C(F)(F)F)cc2F)cc1 [Example 6, 2-(2-aminophenyl)-N-(2′-fluoro-4′-(1,1,1,3,3,3-hexafluoro-2-hydroxypropan-2-yl)-[1,1′-biphenyl]-4-yl)acetamide] | 5.17 | 0.96 | 1.5 |  |  |  |  |  |  |  |  |  |  |  |  |  |  |  | 
4 | CCCCC(=O)Nc1ccc(-c2ccc(C(O)(C(F)(F)F)C(F)(F)F)cc2F)cc1 [Example 7] | 10.2 ± 1.61 | 4.17 | 6.3 |  |  |  |  |  |  |  |  |  |  |  |  |  |  |  | 
